Data: the supplement of paper PMC10307832

How the values were obtained:
Test in all cases: relative viability (nuclei count vs DMSO), 5 days (fraction); higher = more cells survive
[1] = compound: COc1cc2nc(N3CCCN(C)CC3)nc(NC3CCN(Cc4ccccc4)CC3)c2cc1OC + CC1(C)CCC(c2ccc(Cl)cc2)=C(CN2CCN(c3ccc(C(=O)NS(=O)(=O)c4ccc(N[C@H](CCN5CCOCC5)CSc5ccccc5)c(S(=O)(=O)C(F)(F)F)c4)cc3)CC2)C1 [Navitoclax] (partner 0.5 µM)
Method in brief: (§1)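 Lung cancer cell lines, seeded in 1536-well plates, were treated the following day by pin tool with a single drug or with five library-drug doses (not always all listed) in √10 steps on top of a fixed anchor-drug dose. Cells were fixed and nuclei stained in one step after 5 days, and nuclei were counted. Relative viability is the nuclei count for treated wells divided by that for vehicle wells, reported as medians of duplicate plates.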

AZD6482 + Linsitinib = compound: Cc1cc([C@@H](C)Nc2ccccc2C(=O)O)c2nc(N3CCOCC3)cc(=O)n2c1 [AZD6482] + C[C@]1(O)C[C@@H](c2nc(-c3ccc4ccc(-c5ccccc5)nc4c3)c3c(N)nccn32)C1 [Linsitinib] (partner 1 µM)
Method in brief: as §1

AZD6482 + Crizotinib = compound: Cc1cc([C@@H](C)Nc2ccccc2C(=O)O)c2nc(N3CCOCC3)cc(=O)n2c1 [AZD6482] + C[C@@H](Oc1cc(-c2cnn(C3CCNCC3)c2)cnc1N)c1c(Cl)ccc(F)c1Cl [Crizotinib] (partner 1 µM)
Method in brief: as §1

[2] = compound: COc1cc2nc(N3CCCN(C)CC3)nc(NC3CCN(Cc4ccccc4)CC3)c2cc1OC + CC(=O)c1c(C)c2cnc(Nc3ccc(N4CCNCC4)cn3)nc2n(C2CCCC2)c1=O [Palbociclib] (partner 0.5 µM)
Method in brief: as §1

Cell Line | relative viability ([1]; first compound 0.2 µM) | relative viability ([1]; first compound 0.6325 µM) | relative viability ([1]; first compound 2 µM) | relative viability ([1]; first compound 6.325 µM) | relative viability (AZD6482 + Linsitinib; first compound 0.08 µM) | relative viability (AZD6482 + Linsitinib; first compound 0.253 µM) | relative viability (AZD6482 + Linsitinib; first compound 0.8 µM) | relative viability (AZD6482 + Linsitinib; first compound 2.53 µM) | relative viability (AZD6482 + Linsitinib; first compound 8 µM) | relative viability (AZD6482 + Crizotinib; first compound 0.08 µM) | relative viability (AZD6482 + Crizotinib; first compound 0.253 µM) | relative viability (AZD6482 + Crizotinib; first compound 0.8 µM) | relative viability (AZD6482 + Crizotinib; first compound 2.53 µM) | relative viability (AZD6482 + Crizotinib; first compound 8 µM) | relative viability ([2]; first compound 0.2 µM) | relative viability ([2]; first compound 0.6325 µM) | relative viability ([2]; first compound 2 µM) | relative viability ([2]; first compound 6.325 µM)
201T | 1.2 | 1.2 | 1.23 | 1.15 | 1.03 | 0.969 | 1.01 | 0.808 | 0.867 | 0.998 | 0.991 | 1.09 | 0.944 | 1.04 | 0.375 | 0.361 | 0.354 | 0.365
A549 | 1.24 | 1.13 | 1.14 | 1.06 | 0.478 | 0.347 | 0.466 |  | 0.432 | 0.73 | 0.722 | 0.754 | 0.405 | 0.431 |  |  |  | 
A-427 | 1.04 | 0.966 | 1 | 0.948 | 1.02 | 1.1 | 1.17 | 0.951 | 1.1 | 0.747 | 0.858 | 0.788 | 0.732 | 0.962 | 0.533 | 0.503 | 0.521 | 0.485
ABC-1 |  |  |  |  | 0.611 | 0.801 | 0.81 | 0.521 | 0.815 | 0.853 | 0.969 | 1.03 | 0.899 | 0.801 | 0.718 | 0.682 | 0.754 | 0.6
BEN | 0.0596 | 0.0723 | 0.0708 | 0.0777 | 0.884 | 0.93 | 0.988 | 0.717 | 0.85 | 0.876 | 0.769 | 0.913 | 0.655 | 0.827 | 0.437 | 0.471 | 0.473 | 0.476
CAL-12T | 1.28 | 1.23 | 1.27 | 1.19 | 0.711 | 0.604 | 0.632 | 0.273 | 0.445 | 0.572 | 0.662 | 0.853 | 0.455 | 0.794 | 0.4 | 0.55 | 0.482 | 0.46
COR-L23 | 1.05 | 1.08 | 1.15 | 1.08 | 0.595 | 0.933 | 1.03 | 0.565 | 0.686 | 0.467 | 0.733 | 0.749 | 0.489 | 0.478 | 0.34 | 0.266 | 0.362 | 0.265
COR-L 105 | 0.925 | 0.749 | 0.938 | 0.486 | 0.635 | 0.779 | 0.783 | 0.553 | 0.603 | 0.8 | 0.742 | 0.742 | 0.581 | 0.828 | 0.375 | 0.398 | 0.364 | 0.396
Calu-6 | 0.84 | 0.809 | 0.763 | 0.602 | 0.726 | 0.889 | 0.89 | 0.701 | 0.899 | 0.701 | 0.741 | 0.796 | 0.639 | 0.782 |  |  |  | 
ChaGo-K-1 | 0.987 | 1.05 | 1.13 | 0.72 |  |  |  |  |  | 1.11 |  | 0.744 | 1.23 | 1.12 | 0.883 | 0.979 | 0.933 | 0.902
